# Measured values as given in patent publication US20240217968A1, “PHARMACEUTICAL COMPOUND” (DUKE STREET BIO LIMITED, priority 2021, published 2024).
# Target: T1, recombinant human Flag-tagged PARP7 (amino acids 456-657) (Homo sapiens, UniProt Q7Z3E1)
# T1 construct: recombinant human Flag-tagged PARP7 (amino acids 456-657)
# T1 sequence (Q7Z3E1 456-657): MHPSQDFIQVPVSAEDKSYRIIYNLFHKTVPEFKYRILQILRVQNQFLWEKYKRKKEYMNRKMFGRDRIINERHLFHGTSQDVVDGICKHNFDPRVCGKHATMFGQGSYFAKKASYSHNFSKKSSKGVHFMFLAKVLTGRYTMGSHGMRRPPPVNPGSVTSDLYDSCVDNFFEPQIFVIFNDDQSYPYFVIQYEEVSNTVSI
# Assay: PARP7 biochemical DELFIA assay (auto-MARylation)
# Settings: DELFIA readout, IC50 class
# Outline: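 Flag-PARP7 (456-657), 12.5-37.5 nM stock, captured on anti-FLAG wells, preincubated 30 min with compound, then auto-MARylated with biotin-NAD+ (15 μM stock) in HEPES pH 7.5/NaCl/DTT/BSA/Tween for 2-3 h at room temperature. NAD+ quench; Eu-streptavidin DELFIA read, Ex337/Em620 nm.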
row,IC50,SMILES
1,≤ 100 nM,"CC(CCOCC(=O)N1CCN(c2ncc(Cl)cn2)CC1)n1cc(C(F)(F)F)c2c(=O)[nH]ncc21 (single isomer, unassigned) [Compound 456]"
2,≤ 100 nM,"CC(CCOCC(=O)N1CCN(c2ncc(Cl)cn2)CC1)n1cc(C(F)(F)F)c2c(=O)[nH]ncc21 (single isomer, unassigned) [Compound 457]"
3,≤ 100 nM,"CC(COCC(=O)NC1CCN(c2ncc(C(F)(F)F)cn2)CC1)n1cc(C(F)(F)F)c2c(=O)[nH]ncc21 (single isomer, unassigned) [Compound 459]"
4,≤ 100 nM,"CC(COCC(=O)N(C)C1CCN(c2ncc(C(F)(F)F)cn2)CC1)n1nc(C(F)(F)F)c2c(=O)[nH]ncc21 (single isomer, unassigned) [Compound 460, N-methyl-2-(2-(4-oxo-3-(trifluoromethyl)-4,5-dihydro-1H-pyrazolo[3,4-d]pyridazin-1-yl)propoxy)-N-(1-(5-(trifluoromethyl)pyrimidin-2-yl)piperidin-4-yl) acetamide]"
5,≤ 100 nM,"CC(COCC(=O)N(C)C1CCN(c2ncc(C(F)(F)F)cn2)CC1)n1nc(C(F)(F)F)c2c(=O)[nH]ncc21 (single isomer, unassigned) [Compound 461, N-methyl-2-(2-(4-oxo-3-(trifluoromethyl)-4,5-dihydro-1H-pyrazolo[3,4-d]pyridazin-1-yl)propoxy)-N-(1-(5-(trifluoromethyl)pyrimidin-2-yl)piperidin-4-yl) acetamide]"
6,≤ 100 nM,"CC(COCC(=O)N(C)C1CCN(c2ncc(C(F)(F)F)cn2)CC1)n1cc(C(F)(F)F)c2c(=O)[nH]ncc21 (single isomer, unassigned) [Compound 462]"
7,≤ 100 nM,"CC(COCCC(=O)N1CCN(c2ncc(C#N)cn2)CC1)n1cc(C(F)(F)F)c2c(=O)[nH]ncc21 (single isomer, unassigned) [Compound 464]"
8,≤ 100 nM,"CC(CCOCC(=O)N1CCN(c2ccc(C#N)cn2)CC1)n1nc(C(F)(F)F)c2c(=O)[nH]ncc21 (single isomer, unassigned) [Compound 466]"
9,≤ 100 nM,"CC(CCOCC(=O)N1CCN(c2ccc(C#N)cn2)CC1)n1nc(C(F)(F)F)c2c(=O)[nH]ncc21 (single isomer, unassigned) [Compound 467]"
10,≤ 100 nM,"CC(COCCC(=O)N1CCN(c2ncc(F)cn2)CC1)n1cc(C(F)(F)F)c2c(=O)[nH]ncc21 (single isomer, unassigned) [Compound 468]"
11,≤ 100 nM,"CC(COCCC(=O)N1CCN(c2ncc(F)cn2)CC1)n1cc(C(F)(F)F)c2c(=O)[nH]ncc21 (single isomer, unassigned) [Compound 469]"
12,≤ 100 nM,"CC(COCCC(=O)N1CCN(c2nnc(C(F)(F)F)o2)CC1)n1nc(C(F)(F)F)c2c(=O)[nH]ncc21 (single isomer, unassigned) [Compound 472]"
13,100 to 1000 nM,"CC(COCCC(=O)N1CCN(c2nnc(C(F)(F)F)o2)CC1)n1nc(C(F)(F)F)c2c(=O)[nH]ncc21 (single isomer, unassigned) [Compound 473]"
14,≤ 100 nM,"[2H]C(C)(COCCC(=O)N1CCN(c2ncc(C(F)(F)F)cn2)CC1)n1cc(C(F)(F)F)c2c(=O)[nH]ncc21 (single isomer, unassigned) [Compound 476, 1-(1-(3-oxo-3-(4-(5-(trifluoromethyl)pyrimidin-2-yl)piperazin-1-yl)propoxy)propan-2-yl-2-d)-3-(trifluoromethyl)-1,5-dihydro-4H-pyrrolo[2,3-d]pyridazin-4-one]"
15,≤ 100 nM,"[2H]C(C)(COCCC(=O)N1CCN(c2ncc(C(F)(F)F)cn2)CC1)n1cc(C(F)(F)F)c2c(=O)[nH]ncc21 (single isomer, unassigned) [Compound 477, 1-(1-(3-oxo-3-(4-(5-(trifluoromethyl)pyrimidin-2-yl)piperazin-1-yl)propoxy)propan-2-yl-2-d)-3-(trifluoromethyl)-1,5-dihydro-4H-pyrrolo[2,3-d]pyridazin-4-one]"

# More lines, now with the values behind:
row,SMILES,IC50
1,"[2H]C([2H])(OCCC(=O)N1CCN(c2ncc(C#N)cn2)CC1)C(C)n1nc(C(F)(F)F)c2c(=O)[nH]ncc21 (single isomer, unassigned) [Compound 420, 2-(4-(3-(2-(4-oxo-3-(trifluoromethyl)-4,5-dihydro-1H-pyrazolo[3,4-d]pyridazin-1-yl)propoxy-1,1-d2)propanoyl)piperazin-1-yl)pyrimidine-5-carbonitrile]",≤ 100 nM
2,"[2H]C([2H])(OCCC(=O)N1CCN(c2ncc(C#N)cn2)CC1)C(C)n1nc(C(F)(F)F)c2c(=O)[nH]ncc21 (single isomer, unassigned) [Compound 421, 2-(4-(3-(2-(4-oxo-3-(trifluoromethyl)-4,5-dihydro-1H-pyrazolo[3,4-d]pyridazin-1-yl)propoxy-1,1-d2)propanoyl)piperazin-1-yl)pyrimidine-5-carbonitrile]",≤ 100 nM
3,"[2H]C([2H])(OCCC(=O)N1CCN(c2ncc(C(F)(F)F)cn2)CC1)C(C)n1nc(C(F)(F)F)c2c(=O)[nH]ncc21 (single isomer, unassigned) [Compound 423]",≤ 100 nM
4,"O=C(CCOCC(c1cccc2c(=O)[nH]ncc12)C(F)(F)F)N1CCN(c2ncc(C(F)(F)F)cn2)CC1 (single isomer, unassigned) [Compound 427]",100 to 1000 nM
5,"CC(COCCC(=O)N1CCN(c2cc(C(F)(F)F)on2)CC1)n1nc(C(F)(F)F)c2c(=O)[nH]ncc21 (single isomer, unassigned) [Compound 429]",≤ 100 nM
6,"CC(COCCC(=O)N1CCN(c2cc(C(F)(F)F)on2)CC1)n1nc(C(F)(F)F)c2c(=O)[nH]ncc21 (single isomer, unassigned) [Compound 430]",100 to 1000 nM
7,"CC(COCCC(=O)N1CCN(c2ccc(C#N)cn2)CC1)n1cc(C(F)(F)F)c2c(=O)[nH]ncc21 (single isomer, unassigned) [Compound 431]",≤ 100 nM
8,"CC(COCCC(=O)N1CCN(c2ccc(C#N)cn2)CC1)n1cc(C(F)(F)F)c2c(=O)[nH]ncc21 (single isomer, unassigned) [Compound 432]",≤ 100 nM
9,"CC(COCCC(=O)N1CCN(c2ncc(C(F)(F)F)cn2)CC1)n1nc(C(F)F)c2c(=O)[nH]ncc21 (single isomer, unassigned) [Compound 436]",≤ 100 nM
10,"CC(COCCC(=O)N1CCN(c2ccc(C#N)cn2)CC1)n1nc(C(F)F)c2c(=O)[nH]ncc21 (single isomer, unassigned) [Compound 437]",≤ 100 nM
11,"CC(COCCC(=O)N1CCN(c2ncc(C#N)cn2)CC1)n1cc(C(F)F)c2c(=O)[nH]ncc21 (single isomer, unassigned) [Compound 439]",≤ 100 nM
12,"CC(COCCC(=O)N1CCN(c2cc(Cl)c(F)cn2)CC1)n1nc(C(F)(F)F)c2c(=O)[nH]ncc21 (single isomer, unassigned) [Compound 444]",≤ 100 nM
13,"CC(COCCC(=O)N1CCN(c2cc(Cl)c(F)cn2)CC1)n1nc(C(F)(F)F)c2c(=O)[nH]ncc21 (single isomer, unassigned) [Compound 445]",≤ 100 nM
14,"CC(COCCC(=O)N1CCN(c2ccc(C#N)cn2)CC1)n1cc(C(F)F)c2c(=O)[nH]ncc21 (single isomer, unassigned) [Compound 448]",≤ 100 nM
15,"CC(CCOCC(=O)N1CCN(c2ncc(C(F)(F)F)cn2)CC1)n1cc(C(F)(F)F)c2c(=O)[nH]ncc21 (single isomer, unassigned) [Compound 455]",≤ 100 nM
